Measurements from patent publication US20260157369A1, “COMPOSITIONS CONTAINING PEROXYACID TO INHIBIT GROWTH OF SPORE-PRODUCING ORGANISMS IN ANIMAL FEED AND RELATED METHODS” (KEMIN INDUSTRIES, INC., priority 2024, published 2026).
Converted amounts (≈) assume the structure as drawn. Where two headings read alike, the source gives them in different places. Marks after values point to notes of the source that are not given here.

What was measured:
[1] = test system: A. niger; experiment: Fungicidal effect in mold suspension, one hour treatment, DRBC plating; assay type: cell-based, Aspergillus niger; conditions: for A. niger count, Average ± standard deviation: n = 3
Procedure: Preparation of mold suspension. Aspergillus niger ATCC 24126 and Penicillium chrysogenum Thom ATCC 48908 were purchased from American Type Culture Collection (ATCC). The strains were stored at −80° C. in glycerol. Prior to test, both strains were revived by streaking a loopful of culture onto DRBC (i.e., dichloran rose-bengal chloramphenicol (CM1148B; Thermo Scientific Oxoid) prepared as per recommended by supplier) with 72 hours incubation at 25° C. The three-days old mold culture lawn was diluted in phosphate buffer (0.30 mM; pH 7.2) to obtain a mold suspension of ca. 10^6 CFU/mL. The colony count of the suspension was determined through conventional plating method using DRBC agar at the appropriate dilution. Briefly, the mold suspension was diluted to the appropriate dilution with phosphate buffer (0.30 mM; pH 7.2). Upon dilution, 100 μL of the diluted mold suspension was spread onto the DRBC agar. After which, the plates were incubated at 25° C. for five days prior to counting. Tests were carried out in triplicates.
Fungicidal effect of PPA against A. niger. The fungicidal effect of PPA in solution was evaluated in comparison to propionic acid and hydrogen peroxide. To serve as a positive control and comparison point, propionic acid, was tested at two concentrations, 1500 and 3000 ppm, equivalent to 0.02 and 0.04 mol/L. On the other hand, PPA was tested at a single concentration of 0.02 mol/L. To evaluate the effect of hydrogen peroxide, hydrogen peroxide was also included as one of the treatment groups. Hydrogen peroxide was tested at 2.43% w/w. The concentration of hydrogen peroxide to be tested is calculated based on the equivalent amount present in 0.02 mol/L of PPA, which is the sum of hydrogen peroxide already present and from the potential breakdown of PPA. A 900 μL of mold suspension (of c.a. 10^6 CFU/mL prepared in 0.9% sodium chloride) was treated with 100 μL of the test solutions (prepared in sterile water) for one hour.
After one hour, the treatment solutions were neutralized with 2 mL of sodium thiosulphate and 7 mL of phosphate buffer (0.3 mM; pH 7.2). The solution was at 10-1 dilution. Subsequently the solution was further diluted up to 10-5 with phosphate buffer. The mold count for each treatment was determined through conventional plating method using DRBC agar. Test was conducted in triplicates. Controls were prepared with i) 100 μL of sterile water instead of test solutions and ii) 900 μL of 0.9% sodium chlorine instead of mold suspension and 100 μL of sterile water instead of test solutions.

[2] = test system: Penicillium chrysogenum Thom ATCC 48908; experiment: Well diffusion assay (zone of inhibition); assay type: cell-based; conditions: for zone of inhibition at 175000 µM / zone of inhibition at 350000 µM: Penicillium chrysogenum, read-out: Zone of inhibition, Average ± standard deviation
[3] = test system: Aspergillus niger ATCC 24126; experiment: Well diffusion assay (zone of inhibition); assay type: cell-based; conditions: for zone of inhibition at 175000 µM / zone of inhibition at 350000 µM: Aspergillus niger, read-out: Zone of inhibition, Average ± standard deviation
[4] = test system: Aspergillus niger isolate; experiment: Minimum fungicidal concentration (MFC); assay type: cell-based; conditions: for MFC: Aspergillus niger, read-out: Minimum fungicidal concentration
[5] = test system: mold in naturally contaminated feed for laying hens; experiment: Mold counts in naturally contaminated laying hen feed, 7 days; conditions: 2500 ppm peroxyacid on feed, 7 days at 25° C.
Procedure: PPA acid and peracetic acid stock solutions were provided at a concentration of 20% peroxyacid. The treatment solutions were diluted to the correct concentration with ASTM Type II water before application of the treatments. Feed for laying hens that is naturally contaminated with mold was used for the study. The initial mold count of the feed was log 4.66 cfu/g. For each treatment, 100 g of feed was treated with 1.5 ml of the diluted PPA, peracetic acid or a 1:1 mix of PPA acid and peracetic acid, resulting in a final concentration of 2500 ppm of peroxyacid on the feed. The negative control treatment was treated with 1.5 ml of water. The feed was kept for 7 days at 25° C. before analysis.
Triplicate 5 g feed samples from each treatment were taken and tested for molds. Each sample was mixed vigorously with 0.1% peptone water 30 s and then a 0.1 ml aliquot of the sample was plated on DRBC agar and incubated upright in a 25° C. incubator for 5 days before counting.

[6] = test system: Penicillium vericulosum; conditions: cited from earlier work
[7] = test system: Aspergillus spp., Penicillium spp, and Fusarium spp.; conditions: Higgins et al. 1999; cited from earlier work
[8] = test system: Aspergillus niger; conditions: cited from earlier work
[9] = 48 hours at 25° C., then DRBC plate 5 days at 25° C.
[10] = ATCC48908, 0.175 mol/L active, 72 hours, n = 3
[11] = ATCC48908, 0.350 mol/L active, 72 hours, n = 3
[12] = 0.175 mol/L active, 72 hours, n = 3
[13] = 0.350 mol/L active, 72 hours, n = 3

SMILES: OO [Hydrogen peroxide]
- reduction of A. niger count ([1]; 2.43%): approximately 1.2 log CFU/mL
- A. niger count, Average ± standard deviation ([1]; 2.43% v/v): 4.75 ± 0.13^b log CFU/mL
- Zone of inhibition, Average ± standard deviation ([2]; 0.3% v/v, 72 hours, n = 3): 17.10 ± 0.05^cd mm
- Zone of inhibition, Average ± standard deviation ([2]; 0.6% v/v, 72 hours, n = 3): 19.32 ± 0.76^de mm
- Zone of inhibition, Average ± standard deviation ([2]; 1.0% v/v, 72 hours, n = 3): 22.08 ± 0.34d^ef mm
- Zone of inhibition, Average ± standard deviation ([3]; 0.3% v/v, 72 hours, n = 3): 8.00 ± 0.00^b mm
- Zone of inhibition, Average ± standard deviation ([3]; 0.6% v/v, 72 hours, n = 3): 9.42 ± 0.16^bc mm
- Zone of inhibition, Average ± standard deviation ([3]; 1.0% v/v, 72 hours, n = 3): 10.93 ± 0.31^bc mm

SMILES: CC(=O)O [Acetic acid]
- MFC [4, 9]: > 5000 µg/mL
- zone of inhibition at 175000 µM [2, 10]: 8.97 ± 0.55 mm
- zone of inhibition at 350000 µM [2, 11]: 10.9 ± 0.75 mm

SMILES: CCCC(=O)O [Butyric acid]
- MFC [4, 9]: 5000 µg/mL (≈ 56.7 mM)

SMILES: CCC(=O)OO [PPA, perpropionic acid]
- mold counts seven days after treatment versus control [5]: not significantly different from the control treatment
- Minimum fungicidal concentration [4, 9]: 500 ppm
- times more effective in killing mold than propionic acid ([4]; from the MFC study): at least 5 times
- reduction of A. niger count ([1]; 0.02 mol/L): at least 4 log CFU/mL
- Zone of inhibition, Average ± standard deviation [2, 12]: 23.80 ± 0.58^ef mm
- Zone of inhibition, Average ± standard deviation [2, 13]: 35.45 ± 4.55^g mm
- Zone of inhibition, Average ± standard deviation [3, 12]: 16.42 ± 2.19^d mm
- Zone of inhibition, Average ± standard deviation [3, 13]: 25.67 ± 2.05^e mm

SMILES: CCC(=O)O [Propionic acid]
- concentration capable of inhibiting [6]: 1000-2000 ppm
- Minimum fungicidal concentration [4, 9]: >5000 ppm
- concentration for complete inhibition [7]: lower than 0.35%
- concentration capable of inhibiting [8]: 1000-2000 ppm
- reduction of A. niger count ([1]; 0.02 mol/L): no count reduction
- A. niger count, Average ± standard deviation ([1]; 0.02 mol/L): 6.01 ± 0.08^c log CFU/mL
- fungicidal effect ([1]; 0.04 mol/L (3000 ppm)): no fungicidal effect
- A. niger count, Average ± standard deviation ([1]; 0.04 mol/L): 6.08 ± 0.11^c log CFU/mL
- zone of inhibition at 175000 µM [2, 10]: 9.15 ± 0.45 mm
- zone of inhibition at 350000 µM [2, 11]: 12.1 ± 0.43 mm
- zone of inhibition at 175000 µM ([3]; ATCC24126, 0.175 mol/L active, 72 hours, n = 3): 9.42 ± 0.66 mm
- zone of inhibition at 350000 µM ([3]; ATCC24126, 0.350 mol/L active, 72 hours, n = 3): 12.12 ± 0.03 mm

SMILES: CC(=O)OO [Peracetic acid]
- mold counts seven days after treatment versus control [5]: not significantly different from the control treatment
- MFC [4]: 1000 µg/mL (≈ 13.1 mM)
- zone of inhibition at 175000 µM ([2]; ATCC48908, 72 h): 24.1 ± 0.33 mm
- zone of inhibition at 350000 µM ([2]; ATCC48908, 72 h): 36 ± 3.8 mm
- zone of inhibition at 175000 µM ([3]; ATCC24126, 72 h): 16 ± 0.8 mm
- zone of inhibition at 350000 µM ([3]; ATCC24126, 72 h): 24.7 ± 2.04 mm
